# According to article PMC7559897, “Designed Antimicrobial Peptides Against Trauma-Related Cutaneous Invasive Fungal Wound Infections” (Journal of Fungi, 2020):
# Bridge positions count the residues as written; N and C are the ends. Peptide text beside a SMILES is read from it.
# Assays:
# [1] = test system: S. epidermis ATCC 51625; format: cell-based; settings: cation adjusted Mueller-Hinton broth, ~10^6 CFU/mL, 24 h, 37 °C, OD600 <0.1 in at least 3 of 4 wells, 2-128 μg/mL; shaded values previously reported ref 18
# Method in brief: (§1)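 Twofold broth microdilution of dAMPs (0–128 μg/mL) in quadruplicate; bacteria in 2X cation-adjusted Mueller–Hinton broth at ~10^6 CFU/mL, fungus in potato dextrose broth. Plates kept 24 h at 37 °C; MIC taken from OD600 <0.1 in ≥3 of 4 wells.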
# [2] = test system: Candida parapsilosis Y-1763; format: cell-based; settings: potato dextrose broth, 24 h, 37 °C, OD600 <0.1 in at least 3 of 4 wells, dose range 2 to 128 µg/mL; shaded values previously reported ref 17
# Method in brief: as §1
# [3] = test system: E. cloacae 6054; format: cell-based; settings: cation adjusted Mueller-Hinton broth, ~10^6 CFU/mL, 24 h, 37 °C, OD600 <0.1 in at least 3 of 4 wells, 2-128 μg/mL; shaded values previously reported ref 18
# Method in brief: as §1
# [4] = test system: Absidia corymbifera NRRL 6251; format: cell-based; settings: potato dextrose broth, 24 h, 37 °C, OD600 <0.1 in at least 3 of 4 wells, dose range 2 to 128 µg/mL; shaded values previously reported ref 17
# Method in brief: as §1
# [5] = test system: Aspergillus fumigatus 9651; format: cell-based; settings: potato dextrose broth, 24 h, 37 °C, OD600 <0.1 in at least 3 of 4 wells, dose range 2 to 128 µg/mL; shaded values previously reported ref 17
# Method in brief: as §1
# [6] = test system: Fusarium solani NRRL 28548; format: cell-based; settings: potato dextrose broth, 24 h, 37 °C, OD600 <0.1 in at least 3 of 4 wells, dose range 2 to 128 µg/mL; shaded values previously reported ref 17
# Method in brief: as §1
# [7] = test system: Candida krusei Y-27803; format: cell-based; settings: potato dextrose broth, 24 h, 37 °C, OD600 <0.1 in at least 3 of 4 wells, dose range 2 to 128 µg/mL; shaded values previously reported ref 17
# Method in brief: as §1
# [8] = test system: Mucor circinelloides NRRL 3631; format: cell-based; settings: potato dextrose broth, 24 h, 37 °C, OD600 <0.1 in at least 3 of 4 wells, dose range 2 to 128 µg/mL; shaded values previously reported ref 17
# Method in brief: as §1
# [9] = test system: Aspergillus flavus MYA-1004; format: cell-based; settings: potato dextrose broth, 24 h, 37 °C, OD600 <0.1 in at least 3 of 4 wells, dose range 2 to 128 µg/mL; shaded values previously reported ref 17
# Method in brief: as §1
# [10] = test system: Candida albicans Y-6359; format: cell-based; settings: potato dextrose broth, 24 h, 37 °C, OD600 <0.1 in at least 3 of 4 wells, dose range 2 to 128 µg/mL; shaded values previously reported ref 17
# Method in brief: as §1
# [11] = test system: Candida albicans Y-326; format: cell-based; settings: potato dextrose broth, 24 h, 37 °C, OD600 <0.1 in at least 3 of 4 wells, dose range 2 to 128 µg/mL; shaded values previously reported ref 17
# Method in brief: as §1
# [12] = test system: Aspergillus flavus MYA-3651; format: cell-based; settings: potato dextrose broth, 24 h, 37 °C, OD600 <0.1 in at least 3 of 4 wells, dose range 2 to 128 µg/mL; shaded values previously reported ref 17
# Method in brief: as §1
# [13] = test system: Candida parapsilosis Y-1761; format: cell-based; settings: potato dextrose broth, 24 h, 37 °C, OD600 <0.1 in at least 3 of 4 wells, dose range 2 to 128 µg/mL; shaded values previously reported ref 17
# Method in brief: as §1
# [14] = test system: Aspergillus fumigatus 9648; format: cell-based; settings: potato dextrose broth, 24 h, 37 °C, OD600 <0.1 in at least 3 of 4 wells, dose range 2 to 128 µg/mL; shaded values previously reported ref 17
# Method in brief: as §1
# [15] = test system: Candida krusei Y-27825; format: cell-based; settings: potato dextrose broth, 24 h, 37 °C, OD600 <0.1 in at least 3 of 4 wells, dose range 2 to 128 µg/mL; shaded values previously reported ref 17
# Method in brief: as §1
# [16] = test system: E. cloacae 6053; format: cell-based; settings: cation adjusted Mueller-Hinton broth, ~10^6 CFU/mL, 24 h, 37 °C, OD600 <0.1 in at least 3 of 4 wells, 2-128 μg/mL; shaded values previously reported ref 18
# Method in brief: as §1
# [17] = test system: P. aeruginosa 19660 (Xen5 luciferase); assay: Bioluminescent time-kill assay; format: cell-based, Pseudomonas aeruginosa; settings: 8 μg/mL; RP553 at 60 min; bioluminescence
# Source text: (§2) Fungal and bacterial strains were obtained from American Type Culture Collection (ATCC, Manassas, VA, USA) or the clinical isolate collection at Trideum Biosciences (Frederick, MD, USA) and are presented in Table 1 and Table 2, respectively. Bioluminescence strains of P. aeruginosa 19660, transfected with the Xen5 luciferase gene, and S. aureus ATCC R 49525TM (Wright), transfected with the Xen36 luciferase gene, were obtained from Perkin Elmer (Waltham, MA, USA).
# (§3) Real-time killing of bacterial cells, P. aeruginosa or S. aureus, and mammalian cytotoxicity to assess dAMP off-target toxicity was evaluated using bioluminescent cells. The L929 fibroblast cells (ATCC, Manassas, VA, USA) were made bioluminescent by transfection with a luciferase gene. Cells (1 × 10^4 cells, 100 μL) were plated in 96-well black-walled plates and the candidate dAMPs were 2-fold serially diluted from specified concentrations in growth medium supplemented with 150 μg/mL D-luciferin. Each concentration was performed in triplicate, with the final volume being 200 μL. Imaging was performed at select times after the addition of the dAMP, and compared to concurrently run vehicle-control, using an IVIS Lumina imaging system (Caliper Life Sciences, Inc., Hopkinton, MA, USA). For imaging, the 96-well plate was positioned on the stage (12.5-cm field of view), with an open emission filter, binning of 4, and f-stop 1 and a 1-min exposure time. Monitoring bioluminescence allows assessment of the kinetics of cellular viability as there is a tight correlation between the bioluminescent signal and cell viability. Data analysis was performed using the Living Image software program (version 4.3, Caliper Life Sciences, Inc., Hopkinton, MA, USA).
# (§4) Figure 3 RP553, RP556, RP557 rapidly destroy P. aeruginosa and S. aureus. The bioluminescence of viable P. aeruginosa 19,660 and S. aureus 49,525 cells was quantitated in real time with an IVIS Lumina bioimaging system. Data represent the mean ± SE of triplicate replicates from two independent experiments. For some points, the error bars are shorter than the height of the symbols.
# [18] = test system: P. aeruginosa ATCC 19660; format: cell-based, Pseudomonas aeruginosa; settings: cation adjusted Mueller-Hinton broth, ~10^6 CFU/mL, 24 h, 37 °C, OD600 <0.1 in at least 3 of 4 wells, 2-128 μg/mL; shaded values previously reported ref 18
# Method in brief: as §1
# [19] = test system: P. aeruginosa ATCC 27853; format: cell-based, Pseudomonas aeruginosa; settings: cation adjusted Mueller-Hinton broth, ~10^6 CFU/mL, 24 h, 37 °C, OD600 <0.1 in at least 3 of 4 wells, 2-128 μg/mL; shaded values previously reported ref 18
# Method in brief: as §1
# [20] = test system: P. aeruginosa 6186; format: cell-based, Pseudomonas aeruginosa; settings: cation adjusted Mueller-Hinton broth, ~10^6 CFU/mL, 24 h, 37 °C, OD600 <0.1 in at least 3 of 4 wells, 2-128 μg/mL; shaded values previously reported ref 18
# Method in brief: as §1
# [21] = test system: K. pneumonia ATCC 10031; format: cell-based, Klebsiella pneumoniae; settings: cation adjusted Mueller-Hinton broth, ~10^6 CFU/mL, 24 h, 37 °C, OD600 <0.1 in at least 3 of 4 wells, 2-128 μg/mL; shaded values previously reported ref 18
# Method in brief: as §1
# [22] = test system: K. pneumonia 6069; format: cell-based, Klebsiella pneumoniae; settings: cation adjusted Mueller-Hinton broth, ~10^6 CFU/mL, 24 h, 37 °C, OD600 <0.1 in at least 3 of 4 wells, 2-128 μg/mL; shaded values previously reported ref 18
# Method in brief: as §1
# [23] = test system: L929 fibroblast cells; assay: Bioluminescent mammalian cytotoxicity assay; format: cell-based, murine; settings: L929 fibroblasts, up to 64 μg/mL, 8 h of exposure, bioluminescence
# Description: as §3, with “Data analysis was performed using the Living Image software program (version 4.3, Caliper Life Sciences, Inc., Hopkinton, MA, USA).” left out
# Figure 2 RP504, RP556 and RP557 induce limited mammalian cell toxicity. […] Cells were plated at 1×10^4 cells/well, allowed to adhere overnight and the specific dAMP added, and cytotoxicity evaluated through 8 h. […]
# [24] = test system: S. aureus 49525 (Xen36 luciferase); format: cell-based, Staphylococcus aureus; settings: 8 μg/mL, 60 min incubation, bioluminescence, triplicates from two independent experiments
# Source text: as §2, §3, §4
# [25] = test system: A. baumannii 6838; format: cell-based, Acinetobacter baumannii; settings: cation adjusted Mueller-Hinton broth, ~10^6 CFU/mL, 24 h, 37 °C, OD600 <0.1 in at least 3 of 4 wells, 2-128 μg/mL; shaded values previously reported ref 18
# Method in brief: as §1
# [26] = test system: A. baumannii ATCC 17978; format: cell-based, Acinetobacter baumannii; settings: cation adjusted Mueller-Hinton broth, ~10^6 CFU/mL, 24 h, 37 °C, OD600 <0.1 in at least 3 of 4 wells, 2-128 μg/mL; shaded values previously reported ref 18
# Method in brief: as §1
# [27] = test system: A. baumannii 6043; format: cell-based, Acinetobacter baumannii; settings: cation adjusted Mueller-Hinton broth, ~10^6 CFU/mL, 24 h, 37 °C, OD600 <0.1 in at least 3 of 4 wells, 2-128 μg/mL; shaded values previously reported ref 18
# Method in brief: as §1
# [28] = test system: S. aureus B-767; format: cell-based, Staphylococcus aureus; settings: cation adjusted Mueller-Hinton broth, ~10^6 CFU/mL, 24 h, 37 °C, OD600 <0.1 in at least 3 of 4 wells, 2-128 μg/mL; shaded values previously reported ref 18
# Method in brief: as §1
# [29] = test system: MRSA 6381; format: cell-based, Staphylococcus aureus; settings: cation adjusted Mueller-Hinton broth, ~10^6 CFU/mL, 24 h, 37 °C, OD600 <0.1 in at least 3 of 4 wells, 2-128 μg/mL; shaded values previously reported ref 18
# Method in brief: as §1
# [30] = test system: S. aureus 6061; format: cell-based, Staphylococcus aureus; settings: cation adjusted Mueller-Hinton broth, ~10^6 CFU/mL, 24 h, 37 °C, OD600 <0.1 in at least 3 of 4 wells, 2-128 μg/mL; shaded values previously reported ref 18
# Method in brief: as §1
# [31] = test system: MRSA ATCC 33592; format: cell-based, Staphylococcus aureus; settings: cation adjusted Mueller-Hinton broth, ~10^6 CFU/mL, 24 h, 37 °C, OD600 <0.1 in at least 3 of 4 wells, 2-128 μg/mL; shaded values previously reported ref 18
# Method in brief: as §1
# [32] = test system: MRSA 6313; format: cell-based, Staphylococcus aureus; settings: cation adjusted Mueller-Hinton broth, ~10^6 CFU/mL, 24 h, 37 °C, OD600 <0.1 in at least 3 of 4 wells, 2-128 μg/mL; shaded values previously reported ref 18
# Method in brief: as §1
smiles,measurement,setting,value
"CC[C@H](C)[C@@H]1NC(=O)CNC(=O)[C@H](CCCCN)NC(=O)[C@H](Cc2ccc(O)cc2)NC(=O)[C@@H]2CSSC[C@H](NC1=O)C(=O)N[C@@H](Cc1ccc(O)cc1)C(=O)N[C@@H](CCCCN)C(=O)N[C@@H](CCCCN)C(=O)N[C@H](C(=O)N[C@@H](CCCCN)C(N)=O)CSSC[C@H](NC(=O)[C@H](Cc1c[nH]c3ccccc13)NC(=O)[C@@H](N)CCCNC(=N)N)C(=O)N[C@@H](Cc1ccccc1)C(=O)N[C@@H](CCCCN)C(=O)N[C@@H](C(C)C)C(=O)N2 [RP556] (H-RWCFKVCYKGICYKKCK-NH2; disulfide 3-16, 7-12)",MIC against S. epidermis ATCC 51625,[1],4 µg/mL
same,MIC against Candida parapsilosis Y-1763,[2],2 µg/mL
same,MIC against E. cloacae 6054,[3],8 µg/mL
same,MIC against Absidia corymbifera NRRL 6251,[4],2 µg/mL
same,MIC against Aspergillus fumigatus 9651,[5],64 µg/mL
same,MIC against Fusarium solani NRRL 28548,[6],2 µg/mL
same,MIC against Candida krusei Y-27803,[7],16 µg/mL
same,MIC against Mucor circinelloides NRRL 3631,[8],64 µg/mL
same,MIC against Aspergillus flavus MYA-1004,[9],64 µg/mL
same,MIC against Candida albicans Y-6359,[10],8 µg/mL
same,MIC against Candida albicans Y-326,[11],16 µg/mL
same,MIC against Aspergillus flavus MYA-3651,[12],64 µg/mL
same,MIC against Candida parapsilosis Y-1761,[13],32 µg/mL
same,MIC against Aspergillus fumigatus 9648,[14],64 µg/mL
same,MIC against Candida krusei Y-27825,[15],32 µg/mL
same,MIC against E. cloacae 6053,[16],8 µg/mL
same,P. aeruginosa killing (in words),[17],immediate eradication
same,MIC against P. aeruginosa ATCC 19660,[18],8 µg/mL
same,MIC against P. aeruginosa ATCC 27853,[19],8 µg/mL
same,MIC against P. aeruginosa 6186,[20],4 µg/mL
same,MIC against K. pneumonia ATCC 10031,[21],8 µg/mL
same,MIC against K. pneumonia 6069,[22],8 µg/mL
same,mammalian cell toxicity (in words),[23],Limited toxicity
same,S. aureus killing,[24],45%
same,MIC against A. baumannii 6838,[25],8 µg/mL
same,MIC against A. baumannii ATCC 17978,[26],8 µg/mL
same,MIC against A. baumannii 6043,[27],8 µg/mL
same,MIC against S. aureus B-767,[28],8 µg/mL
same,MIC against MRSA 6381,[29],4 µg/mL
same,MIC against S. aureus 6061,[30],16 µg/mL
same,MIC against MRSA ATCC 33592,[31],4 µg/mL
same,MIC against MRSA 6313,[32],8 µg/mL
